Test results taken from ChEMBL document CHEMBL1201862, “PubChem BioAssay data set” (2004).
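Where inhibition never reached the appropriate level, the endpoint shown equals the highest concentration tested. Otherwise, values were interpolated linearly from a five-concentration, 48-hour dose response in 96-well plates. Here, GI50 denotes the concentration required for 50% inhibition of growth.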 Active and inactive are the calls of the source. Cut-off read from the data, not from the text of the source: active = GI50 up to about 1.1 µM and inactive = higher.

Columns and labels:
Assay in all cases: inhibition of tumour cell growth, NCI panel, 48 h
CAKI-1 = tested on: CAKI-1
NCI/ADR-RES = tested on: NCI/ADR-RES
UACC-257 = tested on: UACC-257
NCI-H460 = tested on: NCI-H460
NCI-H23 = tested on: NCI-H23
HCT-116 = tested on: HCT-116
SK-MEL-5 = tested on: SK-MEL-5
UACC-62 = tested on: UACC-62
MDA-MB-435 = tested on: MDA-MB-435
HOP-62 = tested on: HOP-62
HCT-15 = tested on: HCT-15
SNB-19 = tested on: SNB-19
MDA-MB-231 = tested on: MDA-MB-231
RXF 393 = tested on: RXF 393
NCI-H226 = tested on: NCI-H226
OVCAR-4 = tested on: OVCAR-4
KM12 = tested on: KM12
SN12C = tested on: SN12C
UO-31 = tested on: UO-31
A498 = tested on: A498

SMILES	GI50 (CAKI-1)	GI50 (NCI/ADR-RES)	GI50 (UACC-257)	GI50 (NCI-H460)	GI50 (NCI-H23)	GI50 (HCT-116)	GI50 (SK-MEL-5)	GI50 (UACC-62)	GI50 (MDA-MB-435)	GI50 (HOP-62)	GI50 (HCT-15) [µM]	GI50 (SNB-19)	GI50 (MDA-MB-231)	GI50 (RXF 393)	GI50 (NCI-H226)	GI50 (OVCAR-4)	GI50 (KM12)	GI50 (SN12C)	GI50 (UO-31)	GI50 (A498)
C[n+]1c(-c2ccccc2)cc2/c(=C\c3ccc([N+](=O)[O-])cc3)c3ccccc3n21	15.8 µM (inactive)	> 100 µM (inactive)	4.99 µM (inactive)	1.45 µM (inactive)	2.51 µM (inactive)	1.02 µM (active)	1.95 µM (inactive)	6.35 µM (inactive)	2.54 µM (inactive)	4.84 µM (inactive)	14.3	3.06 µM (inactive)	3.24 µM (inactive)	4.45 µM (inactive)	2.65 µM (inactive)	26.1 µM (inactive)	3.29 µM (inactive)	2.17 µM (inactive)	6.05 µM (inactive)	11 µM (inactive)
N=C(N)N/N=C/c1c(-c2ccccc2[N+](=O)[O-])nc2sccn12	64.9 µM (inactive)	> 100 µM (inactive)	18.3 µM (inactive)	19.1 µM (inactive)	29.2 µM (inactive)	18.6 µM (inactive)	16.9 µM (inactive)	17.5 µM (inactive)	17.1 µM (inactive)	25.7 µM (inactive)	> 100	23.8 µM (inactive)	16.1 µM (inactive)	12.6 µM (inactive)	17.4 µM (inactive)	45.9 µM (inactive)	20.4 µM (inactive)	32.5 µM (inactive)	36.8 µM (inactive)	18.8 µM (inactive)
C/C(=N\Nc1nc2ccccc2n1C)c1cnccn1	0.0348 µM (active)	0.164 µM (active)	0.0483 µM (active)	0.223 µM (active)	0.105 µM (active)	0.0265 µM (active)	0.154 µM (active)	0.366 µM (active)	0.55 µM (active)	0.537 µM (active)	0.0438	2.73 µM (inactive)	0.044 µM (active)	1.23 µM (inactive)	0.256 µM (active)	0.0504 µM (active)	0.824 µM (active)	0.0395 µM (active)	0.0407 µM (active)	0.684 µM (active)
Fc1ccc(C(OCCN2CCC3CCC(C2)N3C/C=C/c2cccs2)c2ccc(F)cc2)cc1 (stereo not given)	10.2 µM (inactive)	6.24 µM (inactive)	3.66 µM (inactive)	3.08 µM (inactive)	8.34 µM (inactive)	3.45 µM (inactive)	3.04 µM (inactive)	11.5 µM (inactive)	6.98 µM (inactive)	13.6 µM (inactive)	4.06	13.9 µM (inactive)	9.31 µM (inactive)	3.77 µM (inactive)	7.19 µM (inactive)	7.36 µM (inactive)	4.44 µM (inactive)	5.69 µM (inactive)	12 µM (inactive)	9.06 µM (inactive)
N#Cc1nc(C2CCC2)oc1N	> 100 µM (inactive)	> 100 µM (inactive)	> 100 µM (inactive)	> 100 µM (inactive)	> 100 µM (inactive)	> 100 µM (inactive)	> 100 µM (inactive)	> 100 µM (inactive)	> 100 µM (inactive)	> 100 µM (inactive)	> 100	> 100 µM (inactive)	> 100 µM (inactive)	> 100 µM (inactive)	> 100 µM (inactive)	> 100 µM (inactive)	> 100 µM (inactive)	> 100 µM (inactive)	> 100 µM (inactive)	> 100 µM (inactive)
COC1(C)OC[C@@]2(C)OC(C)C1(C)C2O[Si](C(C)C)(C(C)C)C(C)C (stereo not given in full)	28.6 µM (inactive)	22.1 µM (inactive)	19.9 µM (inactive)	23.7 µM (inactive)	25.7 µM (inactive)	29.2 µM (inactive)	20.9 µM (inactive)	31 µM (inactive)	28.7 µM (inactive)	28.6 µM (inactive)	22.4	48.9 µM (inactive)	26.4 µM (inactive)	27 µM (inactive)	19.5 µM (inactive)	30.3 µM (inactive)	31.8 µM (inactive)	23 µM (inactive)	45 µM (inactive)	66.8 µM (inactive)
N#C/C(=C\n1ccc(=O)[nH]c1=S)C(N)=O	> 100 µM (inactive)	> 100 µM (inactive)	> 100 µM (inactive)	> 100 µM (inactive)	> 100 µM (inactive)	> 100 µM (inactive)	> 100 µM (inactive)	> 100 µM (inactive)	> 100 µM (inactive)	> 100 µM (inactive)	> 100	> 100 µM (inactive)	> 100 µM (inactive)	> 100 µM (inactive)	> 100 µM (inactive)	> 100 µM (inactive)	> 100 µM (inactive)	> 100 µM (inactive)	> 100 µM (inactive)	> 100 µM (inactive)
COc1ccc(/C=C2\CCC(CN(C)C)C2=O)cc1OC (stereo not given)	4.8 µM (inactive)	2.49 µM (inactive)	5.41 µM (inactive)	11.1 µM (inactive)	7.82 µM (inactive)	2.3 µM (inactive)	10.1 µM (inactive)	5.46 µM (inactive)	5.55 µM (inactive)	18.8 µM (inactive)	2.9	16.5 µM (inactive)	2.35 µM (inactive)	1.94 µM (inactive)	13.2 µM (inactive)	7.64 µM (inactive)	2.37 µM (inactive)	3.43 µM (inactive)	11.5 µM (inactive)	14.6 µM (inactive)
C/C=C1/CN2CCC34C5=CC(=O)C(c6cc7c(cc6OC)N(C)C6=C(C(=O)OC)CC8(CC)CCCN9CCC67C98)=CC5=NC23CCC1C4C(=O)OC (stereo not given)	9.51 µM (inactive)	18.8 µM (inactive)	14 µM (inactive)	14.3 µM (inactive)	14.8 µM (inactive)	10.9 µM (inactive)	15.2 µM (inactive)	16.6 µM (inactive)	13 µM (inactive)	16.8 µM (inactive)	14.6	16 µM (inactive)	10.2 µM (inactive)	10.3 µM (inactive)	20.4 µM (inactive)	14 µM (inactive)	16.4 µM (inactive)	14.5 µM (inactive)	12.1 µM (inactive)	16.6 µM (inactive)
O=[N+]([O-])C[C@@]12O[C@]3(O)C4C5CC(C6C5C3C61)C42 (stereo not given in full)	> 100 µM (inactive)	> 100 µM (inactive)	> 100 µM (inactive)	> 100 µM (inactive)	> 100 µM (inactive)	> 100 µM (inactive)	> 100 µM (inactive)	> 100 µM (inactive)	> 100 µM (inactive)	> 100 µM (inactive)	> 100	> 100 µM (inactive)	> 100 µM (inactive)	> 100 µM (inactive)	> 100 µM (inactive)	> 100 µM (inactive)	> 100 µM (inactive)	> 100 µM (inactive)	> 100 µM (inactive)	> 100 µM (inactive)
CC(=O)O[C@H]1CC[C@H]2[C@@H]3CCC4=C(C(=O)C=CC4(C)OC(C)=O)[C@H]3CC[C@]12C (stereo not given in full)	> 100 µM (inactive)	43.7 µM (inactive)	> 100 µM (inactive)	42.3 µM (inactive)	35.8 µM (inactive)	33.2 µM (inactive)	47.9 µM (inactive)	23.1 µM (inactive)	49.4 µM (inactive)	> 100 µM (inactive)	64.3	> 100 µM (inactive)	41 µM (inactive)	32.1 µM (inactive)	> 100 µM (inactive)	> 100 µM (inactive)	29.1 µM (inactive)	41.5 µM (inactive)	55.3 µM (inactive)	> 100 µM (inactive)
COC1CC(n2ccc(=O)[nH]c2=O)OC1CO (stereo not given)	> 100 µM (inactive)	> 100 µM (inactive)	> 100 µM (inactive)	> 100 µM (inactive)	> 100 µM (inactive)	> 100 µM (inactive)	> 100 µM (inactive)	> 100 µM (inactive)	> 100 µM (inactive)	> 100 µM (inactive)	> 100	> 100 µM (inactive)	> 100 µM (inactive)	> 100 µM (inactive)	> 100 µM (inactive)	> 100 µM (inactive)	> 100 µM (inactive)	> 100 µM (inactive)	> 100 µM (inactive)	> 100 µM (inactive)
CS/C(N)=N/c1cccc2ccccc12	> 10 µM (inactive)	> 10 µM (inactive)	> 10 µM (inactive)	> 10 µM (inactive)	> 10 µM (inactive)	> 10 µM (inactive)	> 10 µM (inactive)	> 10 µM (inactive)	> 10 µM (inactive)	> 10 µM (inactive)	> 10	> 10 µM (inactive)	> 10 µM (inactive)	> 10 µM (inactive)	> 10 µM (inactive)	> 10 µM (inactive)	> 10 µM (inactive)	> 10 µM (inactive)	> 10 µM (inactive)	> 10 µM (inactive)
CN1c2c(O)nc(N)nc2NCC1CCNc1ccc(C(=O)NC(CCC(=O)O)C(=O)O)cc1 (stereo not given)	328 µM (inactive)	1920 µM (inactive)	1030 µM (inactive)	35.6 µM (inactive)	1640 µM (inactive)	28.8 µM (inactive)	1120 µM (inactive)	133 µM (inactive)	104 µM (inactive)	467 µM (inactive)	1430	1820 µM (inactive)	1530 µM (inactive)	1010 µM (inactive)	807 µM (inactive)	893 µM (inactive)	916 µM (inactive)	540 µM (inactive)	1310 µM (inactive)	948 µM (inactive)
